This note sets out measurements from patent US20240041042A1, “1-(PYRIDYL)-5-AZINYLPYRAZOLE DERIVATIVES, AND THEIR USE FOR CONTROL OF UNDESIRED PLANT GROWTH” (Bayer Aktiengesellschaft, priority 2020, published 2024).

Read-outs that look alike come from different tables or passages of the source.

Assay type in all cases: in vivo
Series [1] deals with Alopecurus myosuroides (ALOMY). Briefly: Post-emergence herbicidal action against ALOMY. The following applies: 320 g/ha, visual rating about 3 weeks after treatment vs untreated controls (100% = plants have died, 0% = like control plants). The method in brief: (§1)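 Values are percent visual activity (0% like control, 100% plants dead) after about 3 weeks in the greenhouse. Treatment: post-emergence spray at one-leaf stage, 600 l/ha spray volume, 0.5% additive, doses 320 g/ha or lower.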

Series [2] deals with Digitaria sanguinalis (DIGSA). Briefly: Post-emergence herbicidal action against DIGSA. To be noted: visual rating about 3 weeks after treatment. The method in brief:
as §1

Series [3] deals with Echinochloa crus-galli (ECHCG). Nature of the series: Post-emergence herbicidal action against ECHCG. The method in brief:
as §1

The next series concerns Lolium rigidum (LOLRI). Briefly: Post-emergence herbicidal action against LOLRI. An outline of the steps:
as §1

For series [4], the system named is Matricaria inodora (MATIN). Briefly: Post-emergence herbicidal action against MATIN. To be noted: dosage 320 g/ha. An outline of the steps:
as §1

For series [5], the system named is Pharbitis purpurea (PHBPU). Briefly: Post-emergence herbicidal action against PHBPU. The following applies: dosage 320 g/ha. An outline of the steps: as §1
The subject of the next series is Setaria viridis (SETVI). Briefly: Post-emergence herbicidal action against SETVI. An outline of the steps: as §1
The next series relates to Viola tricolor (VIOTR). Nature of the series: Post-emergence herbicidal action against VIOTR. The method in brief: as §1
The next series has as its system Oryza sativa (ORYSA). The following applies: crop plant compatibility. The method in brief:
(§2)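 Greenhouse crops in sandy loam sprayed post-emergence at the one-leaf stage, 2–3 weeks after sowing, with WP or EC formulations in water plus 0.5% additive at 600 l/ha. Damage rated visually about 3 weeks later versus untreated controls (0% = like control, 100% = dead); suffixes a–c denote different doses.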

Series [6] has as its system Triticum aestivum (TRZAS). To be noted: crop plant compatibility, 20 g/ha, effect vs untreated controls. An outline of the steps:
as §2

Another series relates to Zea mays (ZEAMX). The following applies: for Post-emergence action against ZEAMX in % (crop plant compatibility): 20 g/ha, effect in comparison to untreated controls; for Post-emergence action against ZEAMX in %: crop plant compatibility, effect vs untreated controls. The method in brief: as §2
For series [7], the system named is Abutilon theophrasti (ABUTH). Briefly: Post-emergence herbicidal action against ABUTH. The following applies: visual rating about 3 weeks after treatment vs untreated controls (100% = plants have died, 0% = like control plants). The method in brief:
as §1

The subject of series [8] is Amaranthus retroflexus (AMARE). Briefly: Post-emergence herbicidal action against AMARE. To be noted: 320 g/ha, visual rating about 3 weeks after treatment. The method in brief:
as §1

The next series concerns Avena fatua (AVEFA). Nature of the series: Post-emergence herbicidal action against AVEFA. The following applies: visual rating about 3 weeks after treatment. The method in brief:
as §1

The test system of series [9] is Polygonum convolvulus (POLCO). Nature of the series: Post-emergence herbicidal action against POLCO. To be noted: dosage 320 g/ha. An outline of the steps:
as §1

The test system of series [10] is Verconica persica (VERPE). Briefly: Post-emergence herbicidal action against VERPE. The method in brief:
as §1

The mark [11] stands for this setting: 20 g/ha, effect vs untreated controls.
Where [12] appears, read: 80 g/ha, effect in comparison to untreated controls.

As for `CCOC(=O)COc1nn(-c2ncccc2F)c(-c2ccnc(F)c2)c1Br` [Example I-136], the “Post-emergence action against ALOMY in %” value in [1] turned out to be 90%. The “Post-emergence action against DIGSA in %” value in series [2] (320 g/ha) was 80%. Further, the “Post-emergence action against ECHCG in %” value in [3] (dosage 320 g/ha) is recorded as 80%. The “Post-emergence action against LOLRI in %” value in the series with Lolium rigidum (LOLRI) (dosage 320 g/ha) was found to be 80%. Further, the “Post-emergence action against MATIN in %” value in series [4] is 80%. Moreover, the “Post-emergence action against PHBPU in %” value in series [5] was found to be 90%. Besides, the “Post-emergence action against SETVI in %” value in the series with Setaria viridis (SETVI) (dosage 320 g/ha) is 90%. For the same compound, the “Post-emergence action against VIOTR in %” value with Viola tricolor (VIOTR) (80 g/ha) and in the series with Viola tricolor (VIOTR) (320 g/ha) was 80% each time. Further, the entries for the “Post-emergence action against ORYSA in %” value in the series on Oryza sativa (ORYSA) (setting [11]) and with Oryza sativa (ORYSA) (setting [12]) were 10% and 20%, respectively. The “Post-emergence action against TRZAS in %” value in [6] is 10%. The “Post-emergence action against ZEAMX in % (crop plant compatibility)” value in the series with Zea mays (ZEAMX) was found to be 10%. Also, the “Post-emergence action against ZEAMX in %” value in the series on Zea mays (ZEAMX) (80 g/ha) is reported as 10%; with Zea mays (ZEAMX) (320 g/ha), 20%.
Turning to `C[C@@H](Oc1nn(-c2ncccc2F)c(-c2ccnc(F)c2)c1Br)C(=O)O` [Example I-140], in [7] (320 g/ha), the “Post-emergence action against ABUTH in %” value turned out to be 80%. In series [1], the “Post-emergence action against ALOMY in %” value is 100%. Further, the “Post-emergence action against AMARE in %” value in [8] worked out at 90%. Further, in the series with Avena fatua (AVEFA) (320 g/ha), the “Post-emergence action against AVEFA in %” value was determined as 90%. Also, in [2] (320 g/ha), the “Post-emergence action against DIGSA in %” value turned out to be 80%. Further, in series [3] (dosage 320 g/ha), the “Post-emergence action against ECHCG in %” value is 80%. Moreover, the “Post-emergence action against LOLRI in %” value in the series on Lolium rigidum (LOLRI) (dosage 320 g/ha) was 90%. Further, the “Post-emergence action against POLCO in %” value in [9] amounted to 90%. The “Post-emergence action against VERPE in %” value in series [10] (320 g/ha, VERPE) is listed as 90%. Besides, the “Post-emergence action against VIOTR in %” value in the series with Viola tricolor (VIOTR) (80 g/ha) and with Viola tricolor (VIOTR) (320 g/ha) was 90% in each case. In addition, the “Post-emergence action against ORYSA in %” value in the series on Oryza sativa (ORYSA) (setting [11]) stood at 0%; in the series on Oryza sativa (ORYSA) (setting [12]), 0%; in the series with Oryza sativa (ORYSA) (320 g/ha, effect in comparison to untreated controls) it was 10%. For the same compound, the “Post-emergence action against TRZAS in %” value in [6] is on record as 10%.
Take `COC(=O)CCOC(=O)COc1nn(-c2ncccc2F)c(-c2ccc(F)nc2)c1C1CC1` [Example I-383]: the “Post-emergence action against ALOMY in %” value in [1] stood at 90%. Further, in [8], the “Post-emergence action against AMARE in %” value was determined as 80%. Also, the “Post-emergence action against AVEFA in %” value in the series on Avena fatua (AVEFA) (80 g/ha) and in the series with Avena fatua (AVEFA) (320 g/ha) was 80% each time. For the same compound, the results for the “Post-emergence action against DIGSA in %” value in [2] (80 g/ha) and in series [2] (320 g/ha) were 80% and 90%, respectively. Further, the “Post-emergence action against ECHCG in %” value is on record as 80% in [3] (dosage 80 g/ha) and 90% in [3] (dosage 320 g/ha). Moreover, the results for the “Post-emergence action against LOLRI in %” value in the series with Lolium rigidum (LOLRI) (dosage 80 g/ha) and in the series on Lolium rigidum (LOLRI) (dosage 320 g/ha) were 80% and 90%, respectively. Besides, the “Post-emergence action against MATIN in %” value in series [4] was 80%. Moreover, the “Post-emergence action against SETVI in %” value with Setaria viridis (SETVI) (dosage 80 g/ha) and in the series on Setaria viridis (SETVI) (dosage 320 g/ha) was 80% throughout. In addition, the “Post-emergence action against VERPE in %” value in [10] (320 g/ha, VERPE) is 90%; in [10] (dosage 80 g/ha), 80%. Besides, the “Post-emergence action against VIOTR in %” value turned out to be 80% in the series on Viola tricolor (VIOTR) (80 g/ha) and 90% in the series with Viola tricolor (VIOTR) (320 g/ha). Further, in series [6], the “Post-emergence action against TRZAS in %” value turned out to be 20%. In the series on Zea mays (ZEAMX), the “Post-emergence action against ZEAMX in % (crop plant compatibility)” value was 10%. The “Post-emergence action against ZEAMX in %” value in the series on Zea mays (ZEAMX) (80 g/ha) is 20%.
As for `O=C(COc1nn(-c2ncccc2F)c(-c2ccc(F)nc2)c1C1CC1)ON=C1CCCC1` [Example I-380], the results for the “Post-emergence action against ABUTH in %” value in series [7] (80 g/ha) and in series [7] (320 g/ha) were 80% and 90%, respectively. In addition, the “Post-emergence action against ALOMY in %” value in series [1] is reported as 90%. The “Post-emergence action against AVEFA in %” value in the series with Avena fatua (AVEFA) (80 g/ha) and in the series with Avena fatua (AVEFA) (320 g/ha) was 90% in each case. Moreover, the “Post-emergence action against DIGSA in %” value in series [2] (80 g/ha) is recorded as 80%; in [2] (320 g/ha) it was 90%. In addition, the entries for the “Post-emergence action against ECHCG in %” value in [3] (dosage 80 g/ha) and in [3] (dosage 320 g/ha) were 80% and 90%, respectively. The “Post-emergence action against LOLRI in %” value with Lolium rigidum (LOLRI) (dosage 80 g/ha) and in the series on Lolium rigidum (LOLRI) (dosage 320 g/ha) was 90% in each case. Further, in series [9], the “Post-emergence action against POLCO in %” value was 80%. The “Post-emergence action against SETVI in %” value in the series with Setaria viridis (SETVI) (dosage 80 g/ha) is given as 80%; in the series with Setaria viridis (SETVI) (dosage 320 g/ha), 90%. Moreover, the “Post-emergence action against VERPE in %” value in series [10] (320 g/ha, VERPE) was 90%; in series [10] (dosage 80 g/ha), 80%. For the same compound, the “Post-emergence action against VIOTR in %” value with Viola tricolor (VIOTR) (80 g/ha) and with Viola tricolor (VIOTR) (320 g/ha) was 90% throughout. Besides, the “Post-emergence action against ORYSA in %” value in the series on Oryza sativa (ORYSA) (setting [11]) is 0%; with Oryza sativa (ORYSA) (setting [12]), 10%. For the same compound, the “Post-emergence action against TRZAS in %” value in series [6] was 20%. Moreover, in the series on Zea mays (ZEAMX), the “Post-emergence action against ZEAMX in % (crop plant compatibility)” value amounted to 0%. The “Post-emergence action against ZEAMX in %” value with Zea mays (ZEAMX) (80 g/ha) was 20%.
